Consider four compounds from ChEMBL document CHEMBL1144756, “Isoprenoid glycosides from Liriosma ovata” (2008).

The MIC is the least concentration at which growth counts as inhibited. One may read the MBC as the smallest concentration meeting the test's criterion for killing. A lower MBC goes with more potent killing.

What all share (assay type): functional
One test has as its system Pseudomonas aeruginosa. The test is described as follows: Antibacterial activity against Pseudomonas aeruginosa ATCC 9027 after 24 hrs by broth microdilution method. To be noted: ATCC 9027, 24 h. A general note: Dilution methods test growth across graded concentrations, often in twofold steps.
Another test has as its system Staphylococcus aureus. The test is described as follows: Antibacterial activity against Staphylococcus aureus ATCC 6538 after 24 hrs by broth microdilution method. To be noted: ATCC 6538, 24 h.
The subject of the next test is Mus musculus. Kind of test: Antiinflammatory activity against corton oil-induced ear edema in mouse.

The structures appear in SMILES notation. Converted amounts (≈) assume the structure as drawn.

In the case of `CC(C)O[C@@H]1O[C@H](CO[C@@H]2OC[C@](O)(CO)[C@H]2O)[C@@H](O)[C@H](O)[C@H]1O`, the minimal inhibitory concentration (MIC) against Pseudomonas aeruginosa and against Staphylococcus aureus was over 20 µg/mL each time.

In the test on Pseudomonas aeruginosa, `CC(C)(O)[C@@H]1CC[C@]2(C)[C@@H](O[C@@H]3O[C@H](CO)[C@@H](O)[C@H](O)[C@H]3O)C[C@@H](O)[C@](C)(O)[C@H]2C1` registered a minimum bactericidal concentration (MBC) of 4 µg/mL (≈ 9.21 µM) and an MIC of 4 µg/mL (≈ 9.21 µM). In addition, in the test on Staphylococcus aureus, the MBC is 4 µg/mL (≈ 9.21 µM) and inhibition of growth (MIC) required 2 µg/mL (≈ 4.6 µM).

As for `CC(=O)/C=C/[C@@]1(O)[C@H](C)C[C@H](O[C@@H]2O[C@H](CO[C@@H]3OC[C@](O)(CO)[C@H]3O)[C@@H](O)[C@H](O)[C@H]2O)CC1(C)C`, the minimum inhibitory concentration (MIC) against Pseudomonas aeruginosa is over 20 µg/mL; with Staphylococcus aureus, 4 µg/mL (≈ 7.68 µM).

On to `COc1ccc2c(c1)c(CC(=O)O)c(C)n2C(=O)c1ccc(Cl)cc1` [INDOMETHACIN], for which the ID50 in the test on Mus musculus is 93 microg/cm2.
